This series is described as follows: RP, Agilent ZORBAX Eclipse Plus C18, 150 × 2.1 mm, 3.5 µm, 40 °C, 0.3 mL/min, estimated dead time 1.1 min; A: water + 0.1% formic acid; B: acetonitrile + 0.1% formic acid; gradient (min/%B) 0/2 1/2 2/20 16.5/98 22/98. The note with it: stereoisomer not certain.

As to `CC(C)(c1ccc(OP(=O)(Oc2ccccc2)Oc2ccccc2)cc1)c1ccc(OP(=O)(Oc2ccccc2)Oc2ccccc2)cc1`, the LC retention time was 17.7 min.
Consider `CCNC(=O)C1CC(C)CCC1C(C)C` (configuration not stated), for which the LC retention time is 11.8 min.
Take `CCNc1nc(NC(C)(C)C)[nH]c(=O)n1`: the LC retention time is 5.98 min.
For `C=CCC1=C(C)C(OC(=O)C2C(C=C(C)C)C2(C)C)CC1=O` (configuration not stated), the LC retention time was 16.1 min.
For `CCNCC(O)COc1ccc(CCOC)cc1` (configuration not stated), the LC retention time is 5.42 min.
As to `O=S(=O)(O)c1ccc2ccccc2c1`, the LC retention time was 7.09 min.
The figure for `COC(=O)C1CCC(=O)N1` (configuration not stated) is 4.58 min; for `CCN(Cc1cccc(S(=O)(=O)O)c1)c1ccc(C(=C2C=CC(=[N+](CC)Cc3cccc(S(=O)(=O)O)c3)C=C2)c2ccccc2S(=O)(=O)[O-])cc1` it is 7.08 min.
For `CCC1CCCC(OC2CCC(N(C)C)C(C)O2)C(C)C(=O)C2=CC3C(C=CC4CC(OC5OC(C)C(OC)C(OC)C5OC)CC43)C2CC(=O)O1` (configuration not stated) the value was 10.4 min; for `Cc1ccnc(NS(=O)(=O)c2ccc(N)cc2)n1`, 5.77 min; for `COc1ccc(O)cc1`, 6.96 min.
Take `c1ccc2[nH]c(-c3cscn3)nc2c1`: the LC retention time was 5.2 min.
With `CC1(C)CC(=O)CC(C)(C)N1`, the LC retention time is 2.82 min.
For `CCCCC(CC)COP(=O)(Oc1ccccc1)Oc1ccccc1` (configuration not stated) the value was 17 min; for `CCCCCCCCCCCCCCCC[N+](C)(C)C`, 12.8 min; for `CC(C)COP(=O)(OCC(C)C)OCC(C)C`, 14 min.
In the case of `O=P(Cc1ccccc1)(c1ccccc1)c1ccccc1`, the LC retention time is 10.8 min.
The figure for `CCCCCCN1C=CN(C)C1` is 5.73 min; for `OCc1coc(-c2ccccc2)n1` it is 7.56 min; for `CSc1ccc(O)cc1C` it is 9.8 min.
With `c1ccc2sc(N3CCOCC3)nc2c1`, the LC retention time is 9.36 min.
In the case of `CCN1CCCC1CNC(=O)c1cc(S(=O)(=O)CC)c(N)cc1O` (configuration not stated), the LC retention time is 5.62 min.
For `CCC(CCC(C)O)COC(=O)c1ccccc1O` (configuration not stated) the value was 12.9 min; for `Cc1cccc(C(=O)O)c1`, 8.59 min; for `c1ccc(C2CN3CCSC3=N2)cc1` (configuration not stated), 5.02 min.
The figure for `CCSc1nc2ccccc2s1` is 13.7 min.
The figure for `Cc1c(O)c(=O)n(-c2ccccc2)n1C` is 6.83 min.
With `C#CC1(O)CCC2C3CCC4=CC(=O)CCC4C3CCC21CC` (configuration not stated), the LC retention time is 12.1 min.
As for `COC(=O)Nc1nc2ccccc2[nH]1`, the LC retention time is 5.08 min.
The figure for `O=C(NO)c1ccccc1` is 4.89 min; for `COc1ccc(C(=O)c2ccccc2)c(O)c1` it is 13.5 min.
On to `Cn1cnc2[nH]c(=O)[nH]c(=O)c21`, for which the LC retention time was 4.44 min.
The figure for `CCN1CCN(C(=O)NC(C(=O)NC2C(=O)N3C(C(=O)O)=C(CSc4nnnn4C)CSC23)c2ccc(O)cc2)C(=O)C1=O` (configuration not stated) is 6.86 min; for `CCCCCCCCCCCCN` it is 9.47 min; for `O=c1c2ccccc2[nH]c2ccccc12` it is 8.5 min.
Regarding `Cn1cnc2nc[nH]c2c1=N`, the LC retention time was 2.36 min.
As to `Nc1nc2c(ncn2C2CC(O)C(CO)O2)c(=O)[nH]1` (configuration not stated), the LC retention time was 4.09 min.
For `O=c1[nH]cnc2c1ncn2C1CC(O)C(CO)O1` (configuration not stated) the value was 4.18 min; for `CSc1nc2ccccc2s1`, 12.2 min; for `CCCCCCCCCCCCCC[N+](C)(C)CCCCCCCCCCCCCC`, 16.9 min.
The figure for `Cc1ccc2n[nH]nc2c1` is 7.02 min.
Consider `O=c1c(-c2ccc(O)cc2)coc2cc(O)ccc12`, for which the LC retention time was 7.74 min.
In the case of `COc1cc(C(=O)c2cnc(N)nc2N)cc(OC)c1OC`, the LC retention time was 5.86 min.
As for `CC12CCC(=O)C=C1CCC1C2C(=O)CC2(C)C1CCC2(O)C(=O)CO` (configuration not stated), the LC retention time is 8.4 min.
For `c1cncc(-c2nc3ccccc3[nH]2)c1` the value was 5.16 min.
In the case of `CN1CCN2c3ncccc3Cc3ccccc3C2C1` (configuration not stated), the LC retention time was 5.46 min.
For `CC(C)NC(=O)NS(=O)(=O)c1cnccc1Nc1cccc(CO)c1` the value was 5.82 min; for `CN(C)c1ccc(C(=C2C=CC(N(C)C)C=C2)c2ccccc2)cc1` (configuration not stated), 9.29 min.
Regarding `Cn1c(=O)c2ncn(C)c2n(C)c1=O`, the LC retention time was 4.73 min.
On to `CCCCN1C=CN(C)C1C` (configuration not stated), for which the LC retention time was 4.73 min.
For `CN1C(=O)NC(=O)C1(C)C` the value was 5.06 min; for `CCCCC(=O)N(Cc1ccc(-c2ccccc2-c2nn[nH]n2)cc1)C(C(=O)O)C(C)C` (configuration not stated), 11.4 min.
For `COc1cc(Cc2cnc(N)nc2N)cc(OC)c1OC`, the LC retention time was 5.11 min.
With `C=Cc1ccc(C[N+](C)(C)C)cc1`, the LC retention time was 5.4 min.
For `O=C(O)c1ccccc1O` the value was 7.89 min; for `Oc1ccc(O)cc1`, 3.67 min; for `CC12CCC3C4CCC(=O)C=C4CCC3C1CCC2O` (configuration not stated), 10.4 min.
On to `CNC(=O)Oc1ccccc1OC(C)C`, for which the LC retention time was 9.47 min.
Regarding `c1ccc(CC2=NCCN2)cc1`, the LC retention time was 4.62 min.
For `CNCC(c1ccc(O)cc1)C1(O)CCCCC1` (configuration not stated) the value was 5.66 min.
`O=C(O)c1ccc(-c2ccccc2-c2nn[nH]n2)cc1`: the LC retention time is 8.03 min.
The figure for `c1ccc2c(c1)Nc1ccccc1S2` is 13.1 min; for `CC12CC=C3c4ccc(O)cc4CCC3C1CCC2(O)CC#N` (configuration not stated) it is 9.96 min; for `Cc1cccc(N(C)C(=S)Oc2ccc3ccccc3c2)c1` it is 15.5 min.
For `CCCCP(=O)(CCCC)CCCC` the value was 11.1 min; for `NC(Cc1ccc(O)cc1)C(=O)O` (configuration not stated), 2.61 min; for `Cc1cc(C(C)(C)C)c(O)c(C)c1CC1=NCCN1`, 7.43 min.
On to `Nc1nc2c(ncn2COC(CO)CO)c(=O)[nH]1`, for which the LC retention time is 2.23 min.
For `O=C([O-])CC[P+](c1ccccc1)(c1ccccc1)c1ccccc1`, the LC retention time is 6.75 min.
Take `CC1c2cccc(O)c2C(O)=C2C(=O)C3(O)C(O)=C(C(N)=O)C(=O)C(N(C)C)C3C(O)C21` (configuration not stated): the LC retention time is 6.5 min.
As for `CC1(C)OCC2OC3(C(=O)O)OC(C)(C)OC3C2O1` (configuration not stated), the LC retention time is 7.35 min.
Regarding `COc1ccccc1NC(C)=O`, the LC retention time is 7.37 min.
As to `Cn1cnc2c(=O)[nH]c(N)nc21`, the LC retention time was 2.43 min.
As for `COC1=C(C)C(=O)C2=C(C1=O)C(COC(N)=O)C1(OC)C3NC3CN21` (configuration not stated), the LC retention time was 7.05 min.
For `CC(=O)Nc1ccc(C)cc1` the value was 7.71 min; for `CCOc1ccc(NC(C)=O)cc1`, 7.62 min.
`CCCCOP(=O)(O)OCCCC`: the LC retention time is 8.01 min.

The values above are taken from the RepoRT retention time repository (doi:10.1016/j.chroma.2015.11.014).
